{
  "source": "patent US6878364B2",
  "about": "“Animal model for flaviviridae infection” (Cornell Research Foundation, Inc., priority 2000, dated 2005)",
  "key": {"[1]": {"assay": "Cytotoxicity on uninfected woodchuck primary hepatocytes (CytoTox96)", "format": "cell-based"}, "[2]": {"assay": "Cytotoxicity on uninfected WCH-8 cells (methylene blue assay)", "format": "cell-based", "conditions": "woodchuck, uninfected woodchuck hepatic WCH-8 cells, three days of treatment"}, "in vitro": {"assay": "in vitro", "format": "cell-based", "conditions": "bovine"}, "[3]": {"test_system": "cpBVDV (cytopathogenic NADL isolate of BVDV)", "experimental": "Virus propagated in bovine cells and woodchuck cell cultures was tittered in NCL cells by measuring cytopathic effects (CPE). NCL cells grown to confluence, were passaged to 96 well microtiter plates at a density of 2×10^4 cells/well (5×10^5/cm^2) and incubated for one hour to allow cell attachment. After attachment, cell cultures were inoculated with serially diluted tissue culture supernatant samples. The endpoint BVDV titer was taken as the reciprocal of the last dilution in which cells were killed 5 days post-infection in one of three triplicate wells, assayed by methylene blue staining.\nAntiviral assay: A lyophilized form of Ribavirin (Virazole^R; Viratek, Inc., Covina, Calif.) was dissolved in H2O to a yield a stock concentration of 100 mM and serially diluted two fold in culture medium prior to testing over a range of 100-0.049 μM. Ribavirin was evaluated in woodchuck WCH-8 cells and in bovine NCL cells in a 96 well format using the methylene blue assay to measure cell viability. The medium was replenished daily with drug and the antiviral effect, cytotoxicity, and reduction in viral yield determined after three days of treatment. […]\nCell killing due to cpBVDV infection and drug cytotoxicity was calculated for each experimental data point and plotted. […] A selectivity index (SI) was determined as the CC50/EC90 ratio."}, "[4]": {"test_system": "cpBVDV (cytopathogenic NADL isolate of BVDV)", "remark": "listed apart in the source", "experimental": "(§1) BVDV stocks and titration: The cytopathogenic NADL isolate of BVDV (cpBVDV) was used for the purposes of this study. A viral stock was made by freeze-thaw of a bovine testicular cell line 5 days after infection with cpBVDV. Virus propagated in bovine cells and woodchuck cell cultures was tittered in NCL cells by measuring cytopathic effects (CPE). NCL cells grown to confluence, were passaged to 96 well microtiter plates at a density of 2×10^4 cells/well (5×10^5/cm^2) and incubated for one hour to allow cell attachment. After attachment, cell cultures were inoculated with serially diluted tissue culture supernatant samples. The endpoint BVDV titer was taken as the reciprocal of the last dilution in which cells were killed 5 days post-infection in one of three triplicate wells, assayed by methylene blue staining.\n(§2) Methylene blue assay: A quantitative measure of cell numbers was obtained through reading the absorbance of methylene blue (Sigma, St. Louis, Mo.) uptake by viable cells. Briefly, three days after infection of cells with cpBVDV, cultures were rinsed with phosphate buffered saline (PBS; Life Technologies) followed by fixation in a Hanks balanced salt solution (HBSS; LifeTechnologies) consisting of 1.25% glutaraldehyde (Fisher Scientific, Fair Lawn, N.J.) and 0.06% methylene blue (Sigma), for 1 hour at 37° C. […] The absorbance of the methylene blue in solution was measured using an ELISA plate reader (Model EL311; Bio-Tek instruments Inc., Winooski, Vt.) with a light filter setting at 630 nm. A standard curve was established for each cell line relating absorbance with cell numbers. […]\n(§3) The medium was replenished daily with drug and the antiviral effect, cytotoxicity, and reduction in viral yield determined after three days of treatment.\n(§4) Cell killing due to cpBVDV infection and drug cytotoxicity was calculated for each experimental data point and plotted. […] A drug concentration sufficient to inhibit 50% of viral induced cell killing (ckEC50) was determined using a peak, log normal, 4 parameter equation. […] A selectivity index (SI) was determined as the CC50/EC90 ratio."}, "[5]": {"test_system": "cpBVDV (cytopathogenic NADL isolate of BVDV)", "remark": "listed apart in the source", "experimental": "as §1, §2, §3, §4"}, "HCV": {"test_system": "HCV", "conditions": "cited from earlier work"}, "[6]": {"test_system": "cpBVDV (cytopathogenic NADL isolate of BVDV)", "assay": "microbe, parasite or virus in culture", "conditions": "Bovine viral diarrhea virus isolates and strains, in Marmota monax, 72 h, read-out: ckEC50 (drug concentration sufficient to inhibit 50% of viral induced cell killing)", "experimental": "as §1, §2, §3, §4"}, "[7]": {"test_system": "cpBVDV (cytopathogenic NADL isolate of BVDV)", "assay": "microbe, parasite or virus in culture", "conditions": "Bovine viral diarrhea virus isolates and strains, in Bos taurus, 72 h, read-out: ckEC50 (drug concentration sufficient to inhibit 50% of viral induced cell killing)", "experimental": "as §1, §2, §3, §4"}},
  "note": "Like-named read-outs stand apart in the source and are kept apart here.",
  "data": [
    {"molecule": "NC(=O)c1ncn([C@@H]2O[C@H](CO)[C@@H](O)[C@H]2O)n1", "note": "[Ribavirin, 1-β-D-ribofuranosyl-1-1,2,4-triazole-3-carboxamide]", "values": [
      {"measurement": "CC50", "setting": "[1]", "value": 44.8, "unit": "µM"},
      {"measurement": "CC50 at 3 days", "setting": "[2]", "value": 2.9, "unit": "µM"},
      {"measurement": "CC50 at 3 days", "setting": "in vitro", "value": 4.3, "unit": "µM"},
      {"measurement": "tEC90 (drug concentration which reduced viral titers by 90%)", "setting": "[3]; cpBVDV-infected woodchuck primary hepatocytes", "value": 3, "unit": "µM"},
      {"measurement": "selectivity index (CC50/tEC90)", "setting": "[3]; woodchuck primary hepatocytes", "value": 14.9},
      {"measurement": "selectivity index (CC50/tEC90)", "setting": "[4]; WCH-8 cells", "value": 2.7},
      {"measurement": "tEC90 (drug concentration which reduced viral titers by 90%)", "setting": "[4]; cpBVDV-infected WCH-8 cells, three days of treatment", "value": 1.1, "unit": "µM"},
      {"measurement": "selectivity index (CC50/tEC90)", "setting": "[5]; NCL cells", "value": 1.7},
      {"measurement": "tEC90 (drug concentration which reduced viral titers by 90%)", "setting": "[5]; cpBVDV-infected NCL cells, three days of treatment", "value": 3.1, "unit": "µM"},
      {"measurement": "patients with serum amino transferase levels reduced to normal", "setting": "HCV", "value": 40, "unit": "%"},
      {"measurement": "EC50", "setting": "[6]", "value": 1.5, "unit": "µM"},
      {"measurement": "EC50", "setting": "[7]", "value": 5.2, "unit": "µM"}
    ]}
  ]
}
